Columns and labels:
[1] = test system: KB tumor line; experiment: Antiproliferative activity (cell viability) on KB tumor line, with or without β-N-acetylglucosaminidase; format: cell-based, human; conditions: KB cells, 72 hours of incubation
Description: (§1) The curves with the circles correspond to MMAE, the curves with the squares correspond to vector 80 and the curves with the triangles correspond to vector 80 in the presence of GlcNase.
(§2) The antiproliferative activity of vector 80 was evaluated on human KB and MDA-MB-231 tumor lines and compared to that of MMAE. To do this, compound 80 was placed in the culture medium in the absence or presence of β-N-acetylglucosaminidase and cell viability was measured after 72 hours of incubation (FIG. 1).

[2] = test system: MDA-MB-231 tumor line; experiment: Antiproliferative activity (cell viability) on MDA-MB-231 tumor line, with or without β-N-acetylglucosaminidase; format: cell-based, human; conditions: MDA-MB-231 cells, 72 hours of incubation
Description: as §1, §2

[3] = test system: MDA-MB-231 orthotopic tumors; experiment: Therapeutic efficacy on MDA-MB-231 orthotopic triple negative breast tumor model in mice; format: in vivo
Description: The vectors were administered on days 21, 35 and 49. Each point corresponds to the average of the tumor volumes±SEM. The curves with the triangles correspond to the vehicle and the curves with the squares correspond to the vector 80.
The therapeutic efficacy of vector 80 was evaluated in mice, on a triple negative breast tumor model of the MDA-MB-231 type (FIG. 2). Compound 80 was administered three times, with a period of 14 days, intravenously in the caudal vein, at a dose of 4 mg·kg^−1.

`CC[C@H](C)[C@@H]([C@@H](CC(=O)N1CCC[C@H]1[C@H](OC)[C@@H](C)C(=O)N[C@H](C)[C@@H](O)c1ccccc1)OC)N(C)C(=O)[C@@H](NC(=O)[C@H](C(C)C)N(C)C(=O)OC(Cc1cn(CCOCCOCCOCCOCCOCCOCCOCCOCCOCCOCCNC(=O)CCCCCN2C(=O)C=CC2=O)nn1)c1ccc(O[C@@H]2OC(CO)[C@@H](O)[C@H](O)C2NC(C)=O)c([N+](=O)[O-])c1)C(C)C` (stereo partly shown) [vector 80] was tested, and the “cytotoxicity in the absence versus presence of β-N-acetylglucosaminidase” value [1] was “identical cytotoxicity”, the “cytotoxicity in the absence versus presence of β-N-acetylglucosaminidase” value [2] was “identical cytotoxicity” and the “therapeutic activity relative to the control group” value ([3]; 4 mg·kg^−1 intravenously, days 21, 35 and 49) was “significant therapeutic activity”. The “mice with total and lasting regression of the tumor” value ([3]; end of the experiment (day 63), 4 mg·kg^−1 intravenously) was 3/6, the “mice that no longer had detectable tumors” value ([3]; from day 35, after the first injection, 4 mg·kg^−1 intravenously) was 4/6 and the “reduction in the initial tumor size (initial response to treatment)” value ([3]; initial response, before regrowth at day 42, 4 mg·kg^−1 intravenously) was 90%. The “mortality (tolerance)” value ([3]; until end of protocol (day 63), 4 mg·kg^−1 intravenously, three administrations) was “no mortality”.

Source: patent US20240424118A1, “VECTORS TARGETING BETA-D-N-ACETYLGLUCOSAMINIDASE” (CENTRE NATIONAL DE LA RECHERCHE SCIENTIFIQUE, priority 2021, published 2024)
